Experimental data: patent US8546404B2, “Compounds that are ERK inhibitors” (Merck Sharp & Dohme, priority 2005, dated 2013)

How the values were obtained:
[1] = Cassette Accelerating Rapid Rat Screen (CARRS), AUC during the first 6 hours; assay type: in vivo, Male Sprague-Dawley rats; conditions: male, Sprague-Dawley, plasma, 10 mg/kg, PO, AUC during the first 6 hours (AUC6hr)
Method: The AUC (Area Under the Concentration-Time Curve During the First 6 Hours (AUC6hr) in Table 30 Below was Determined Using the Protocol of Cassette Accelerating Rapid Rat Screen (CARRS)
Animal Dosing and Sample Collection
Male Sprague-Dawley rats (Charles River, Co.) were pre-cannulated (femoral artery) in order to facilitate precise blood sampling times, and to reduce the stress on the animals caused by serial bleedings. Following an overnight fast, two rats were dosed orally with one compound at a dose of 10 mg/kg in a 5-mL/kg dose volume. Blood was collected into heparin-containing tubes serially from each animal at 0.5, 1, 2, 3, 4 and 6 h post-dosing and centrifuged to generate plasma. Approximately 100 μL of plasma were collected at the individual time points. The plasma samples were stored at −20° C. until analysis.
Plasma Sample and Standard Curve Preparation
A set of 12 rat plasma samples was generated for each NCE (i.e. 6 timepoints and n=2 rats). These 12 samples were pooled across the two rats at each timepoint to provide 6 pooled samples (one sample per time point) for each NCE. The pooled samples were assayed as cassettes of six (36 samples total) to provide data on the six compounds. The 50-μL aliquots of the 36 plasma samples were placed into individual wells of a 96-well plate. An additional compound (often a structural analog of the test compounds) was selected as the internal standard. A mini-calibration curve was prepared (three points plus a zero) for each compound assayed. Drug-free rat plasma was measured into 1-mL aliquots and each aliquot was spiked with known concentrations of the compounds to generate standards of the desired concentrations. The concentrations of the standards were chosen to bracket the expected concentration of the pooled samples based on historical data from previous studies on other compounds. For this work, the standards were set to contain concentrations of 25, 250 and 2500 ng NCE/mL plasma. The plasma standards were precipitated in duplicate along with the samples. Protein precipitation occurred after addition of 150 μL of acetonitrile containing the internal standard at a concentration of 1 ng/mL into each sample well using the Tomtec Quadra 96 system. The precipitated samples and standards were vortexed and centrifuged in the 96-well plate. Approximately 50-100 μL of the supernatant were removed and placed into a fresh 96-well plate using the Tomtec Quadra 96 system. A volume of 5-10 μL of the supernatant was used for analysis by HPLC-MS/MS. The mini-standard curve was run in duplicate, once before and once after the samples. Thus, a total of 14 study samples plus standards were analyzed per compound. In addition, solvent blanks were injected before and after each set of 14 and after the highest calibration standard for each compound; therefore, a total of 103 injections were made into each HPLC system for each set of six compounds. Multiple solvent blank injections could be made from a single well. Twelve solvent blank wells were designated in each 96-well plate. Thus, one batch (cassette) of six NCEs was prepared and assayed using one 96-well plate format.
All the compounds were analyzed using selected reaction monitoring (SRM) methods with LC/MS/MS instruments. Once the method development had been completed, the assay was quickly set up using a standard injection sequence template for the CARRS assay.

[2] = target: fully phosphorylated, active Mouse ERK2 protein (Mus musculus (Mouse), UniProt P63085); assay: Active ERK2 Assay (IMAP format); assay type: biochemical; conditions: read-out: AERK2 IC50
fully phosphorylated, active Mouse ERK2 protein, sequence (P63085 whole entry): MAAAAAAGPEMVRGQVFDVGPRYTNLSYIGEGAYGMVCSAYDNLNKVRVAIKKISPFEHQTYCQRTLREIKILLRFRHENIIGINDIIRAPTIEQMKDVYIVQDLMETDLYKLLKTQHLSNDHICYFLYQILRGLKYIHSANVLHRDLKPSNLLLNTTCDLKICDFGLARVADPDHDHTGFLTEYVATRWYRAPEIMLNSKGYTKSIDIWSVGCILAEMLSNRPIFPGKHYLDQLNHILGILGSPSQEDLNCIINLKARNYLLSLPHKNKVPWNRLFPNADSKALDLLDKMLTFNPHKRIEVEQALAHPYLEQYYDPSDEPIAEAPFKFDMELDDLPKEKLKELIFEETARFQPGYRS
Method: Activated ERK2 activity was also determined in the IMAP assay format using the procedure outlined above. […] Reactions proceeded for 30 minutes before termination by addition of 60 μl IMAP detection beads in binding buffer. Plates were read as above after 30 minute binding equilibration.

Compound | AUC [1] [µM·h] | IC50 [2] [nM]
COC[C@@]1(C(=O)Nc2ccc3[nH]nc(-c4ccnc(C5CC5)c4)c3c2)CCN(CC(=O)N2CC=C(c3ccc(-c4ncccn4)cc3)CC2)C1 [Example 336, 3-Methoxymethyl-1-{2-[4-(4-pyrimidin-2-yl-phenyl)-3,6-dihydro-2H-pyridin-1-yl]-acetyl}-pyrrolidine-3-carboxylic acid [3-(2-cyclopropyl-pyridin-4-yl)-1H-indazol-5-yl]-amide] | 7.22 | –
CS[C@@]1(C(=O)Nc2ccc3[nH]nc(-c4ccc(F)cc4)c3c2)CCN(CC(=O)N2CCN(c3ccc(-c4ncccn4)cn3)C[C@H]2C)C1 [Example 641] | – | 0.16 to 18
CS[C@@]1(C(=O)Nc2ccc3[nH]nc(-c4ccc(F)cc4)c3c2)CCN(CC(=O)N2CCN(c3ccc(-c4ncccn4)cc3)CC2)C1 [Example 647] | – | 0.16 to 18
CS[C@@]1(C(=O)Nc2ccc3[nH]nc(-c4ccnc(C5CC5)c4)c3c2)CCN(CC(=O)N2CC=C(c3ccc(-c4ncccn4)cc3F)CC2)C1 [Example 651] | – | 0.16 to 18
CO[C@@]1(C(=O)Nc2ccc3[nH]nc(-c4ccc(F)cc4)c3c2)CCN(CC(=O)N2CC=C(c3ccc(-c4ncc(F)cn4)c(F)c3)CC2)C1 [Example 661] | – | 0.16 to 18
CO[C@@]1(C(=O)Nc2ccc3[nH]nc(-c4ccc(F)cc4)c3c2)CCN(CC(=O)N2CCN(c3cc(F)c(-c4ncccn4)cc3F)CC2)C1 [Example 663] | – | 0.16 to 18
CO[C@@]1(C(=O)Nc2ccc3[nH]nc(-c4cc[n+]([O-])c(C)c4)c3c2)CCN(CC(=O)N2CC=C(c3ccc(-c4ncccn4)cc3)CC2)C1 [Example 666] | – | 0.16 to 18
CO[C@@]1(C(=O)Nc2ccc3[nH]nc(-c4cc[n+]([O-])c(C5CC5)c4)c3c2)CCN(CC(=O)N2CCC(c3ccc(-c4ncccn4)cc3)CC2)C1 [Example 669] | – | 0.16 to 18
CO[C@@]1(C(=O)Nc2ccc3[nH]nc(-c4cc[n+]([O-])c(C5CC5)c4)c3c2)CCN(CC(=O)N2CC=C(c3ccc(-c4ncccn4)cc3)CC2)C1 [Example 670] | – | 0.16 to 18
COc1cc(C2CCN(C(=O)CN3CC[C@@](OC)(C(=O)Nc4ccc5[nH]nc(-c6ccnc(C7CC7)c6)c5c4)C3)CC2)ccc1-c1ncccn1 [Example 672] | – | 0.16 to 18
COc1cc(C2=CCN(C(=O)CN3CC[C@@](OC)(C(=O)Nc4ccc5[nH]nc(-c6ccnc(C7CC7)c6)c5c4)C3)CC2)ccc1-c1ncccn1 [Example 673] | – | 0.16 to 18
CO[C@@]1(C(=O)Nc2ccc3[nH]nc(-c4ccnc(C(F)F)c4)c3c2)CCN(CC(=O)N2CCC(C)(c3ccc(-c4ncccn4)cc3)CC2)C1 [Example 679] | – | 0.16 to 18
CO[C@@]1(C(=O)Nc2ccc3[nH]nc(-c4ccnc(C5CC5)c4)c3c2)CCN(CC(=O)N2CCC(C)(c3ccc(-c4ncccn4)cc3)CC2)C1 [Example 680] | – | 0.16 to 18
CO[C@@]1(C(=O)Nc2ccc3[nH]nc(-c4ccnc(C(F)(F)F)c4)c3c2)CCN(CC(=O)N2CC=C(c3ccc(-c4ncccn4)cc3F)CC2)C1 [Example 682] | – | 0.16 to 18
CO[C@@]1(C(=O)Nc2ccc3[nH]nc(-c4ccc(F)cc4)c3c2)CCN(CC(=O)N2CC=C(c3ccc(-c4ncccn4)s3)CC2)C1 [Example 737] | – | 0.16 to 18
COCCOc1ccc(-c2n[nH]c3ccc(NC(=O)[C@]4(OC)CCN(CC(=O)N5CC=C(c6ncc(-c7ncccn7)cc6F)CC5)C4)cc23)cc1 [Example 738] | – | 0.16 to 18
COCCOc1cc(-c2n[nH]c3ccc(NC(=O)[C@]4(OC)CCN(CC(=O)N5CC=C(c6ccc(-c7ncccn7)cc6)CC5)C4)cc23)ccc1F [Example 741] | – | 0.16 to 18
COCc1cc(-c2n[nH]c3ccc(NC(=O)[C@]4(OC)CCN(CC(=O)N5CC=C(c6ccc(-c7ncccn7)cc6F)CC5)C4)cc23)ccc1F [Example 747] | – | 0.16 to 18
COCCOc1ccc(-c2n[nH]c3ccc(NC(=O)[C@]4(OC)CCN(CC(=O)N5CC=C(c6ccc(-c7ncccn7)cc6)CC5)C4)cc23)cc1F [Example 749] | – | 0.16 to 18
CO[C@@]1(C(=O)Nc2ccc3[nH]nc(-c4ccc(F)c(OCCO)c4)c3c2)CCN(CC(=O)N2CC=C(c3ccc(-c4ncccn4)cc3)CC2)C1 [Example 755] | – | 0.16 to 18
CO[C@@]1(C(=O)Nc2ccc3[nH]nc(-c4ccc(F)c(NCCO)c4)c3c2)CCN(CC(=O)N2CC=C(c3ccc(-c4ncccn4)cc3)CC2)C1 [Example 757] | – | 0.16 to 18

Compound | AUC [1] [µM·h] | IC50 [2] [nM]
CO[C@@]1(C(=O)Nc2ccc3[nH]nc(-c4ccc(NCCO)cc4)c3c2)CCN(CC(=O)N2CC=C(c3ccc(-c4ncccn4)cc3)CC2)C1 [Example 758] | – | 0.16 to 18
COCCOc1ccc(-c2n[nH]c3ccc(NC(=O)[C@]4(OC)CCN(CC(=O)N5CCC(c6ccc(-c7ncccn7)cc6)CC5)C4)cc23)cc1 [Example 764] | – | 0.16 to 18
COCCOc1ccc(-c2n[nH]c3ccc(NC(=O)[C@]4(OC)CCN(CC(=O)N5CC=C(c6ncc(-c7ncccn7)s6)CC5)C4)cc23)cc1 [Example 765] | – | 0.16 to 18
COCCOc1ccc(-c2n[nH]c3ccc(NC(=O)[C@]4(OC)CCN(CC(=O)N5CC=C(c6ccc(-c7ncccn7)cc6F)CC5)C4)cc23)cc1 [Example 767] | – | 0.16 to 18
CO[C@@]1(C(=O)Nc2ccc3[nH]nc(-c4ccc(F)cc4)c3c2)CCN(CC(=O)N2CC=C(c3ncc(-c4ncccn4)s3)CC2)C1 [Example 776] | – | 0.16 to 18
CO[C@@]1(C(=O)Nc2ccc3[nH]nc(-c4ccnc(C5CC5)c4)c3c2)CCN(CC(=O)N2CC=C(c3ncc(-c4ncccn4)s3)CC2)C1 [Example 777] | – | 0.16 to 18
CO[C@@]1(C(=O)Nc2ccc3[nH]nc(C4CCOCC4)c3c2)CCN(CC(=O)N2CC=C(c3ccc(-c4ncccn4)cc3)CC2)C1 [Example 779] | – | 0.16 to 18
CO[C@@]1(C(=O)Nc2ccc3[nH]nc(-c4ccnc(C(F)F)c4)c3c2)CCN(CC(=O)N2CC=C(c3ccc(-c4ncccn4)cc3)CC2)C1 [Example 785] | – | 0.16 to 18
CO[C@@]1(C(=O)Nc2ccc3[nH]nc(-c4ccnc(C(F)F)c4)c3c2)CCN(CC(=O)N2CCC(c3ccc(-c4ncccn4)cc3)CC2)C1 [Example 786] | – | 0.16 to 18
CO[C@@]1(C(=O)Nc2ccc3[nH]nc(-c4ccc(F)c(CO)c4)c3c2)CCN(CC(=O)N2CC=C(c3ccc(-c4ncccn4)cc3)CC2)C1 [Example 787] | – | 0.16 to 1.5
CO[C@@]1(C(=O)Nc2ccc3[nH]nc(-c4ccnc(C(F)(F)F)c4)c3c2)CCN(CC(=O)N2CCC(c3ccc(-c4ncccn4)cc3)CC2)C1 [Example 788] | – | 0.16 to 18
CO[C@@]1(C(=O)Nc2ccc3[nH]nc(-c4ccnc(C)c4)c3c2)CCN(CC(=O)N2CCC(c3ccc(-c4ncccn4)cc3)CC2)C1 [Example 789] | – | 0.16 to 18
CO[C@@]1(C(=O)Nc2ccc3[nH]nc(-c4ccc(F)c(F)c4)c3c2)CCN(CC(=O)N2CCC(c3ccc(-c4ncccn4)cc3)CC2)C1 [Example 792] | – | 0.16 to 18
CO[C@@]1(C(=O)Nc2ccc3[nH]nc(-c4ccc(N(C)C)cc4)c3c2)CCN(CC(=O)N2CCC(c3ccc(-c4ncccn4)cc3)CC2)C1 [Example 793] | – | 0.16 to 18
CO[C@@]1(C(=O)Nc2ccc3[nH]nc(-c4ccc(F)c(CO)c4)c3c2)CCN(CC(=O)N2CCC(c3ccc(-c4ncccn4)cc3)CC2)C1 [Example 794] | – | 0.16 to 18
CO[C@@]1(C(=O)Nc2ccc3[nH]nc(-c4cn[nH]c4)c3c2)CCN(CC(=O)N2CC=C(c3ccc(-c4ncccn4)cc3)CC2)C1 [Example 796] | – | 0.16 to 18
CO[C@@]1(C(=O)Nc2ccc3[nH]nc(-c4ccc5c(c4)OCO5)c3c2)CCN(CC(=O)N2CCN(c3ccc(-c4ncccn4)cn3)C[C@H]2C)C1 [Example 799] | – | 0.16 to 18
CCc1cc(-c2n[nH]c3ccc(NC(=O)[C@]4(OC)CCN(CC(=O)N5CC=C(c6nccs6)CC5)C4)cc23)ccn1 [Example 802] | – | 0.16 to 18
CO[C@@]1(C(=O)Nc2ccc3[nH]nc(-c4ccc(OCCO)cc4)c3c2)CCN(CC(=O)N2CC=C(c3ccc(-c4ncccn4)cc3)CC2)C1 [Example 822] | – | 0.16 to 18
CO[C@@]1(C(=O)Nc2ccc3[nH]nc(-c4ccc(F)cc4)c3c2)CCN(CC(=O)N2CC=C(c3ccc(-c4ncc(N)cn4)cc3)CC2)C1 [Example 823] | – | 0.16 to 18
